The target of test [1] is T1, GIP receptor (Homo sapiens, UniProt P48546).
T1 sequence (P48546 22-466): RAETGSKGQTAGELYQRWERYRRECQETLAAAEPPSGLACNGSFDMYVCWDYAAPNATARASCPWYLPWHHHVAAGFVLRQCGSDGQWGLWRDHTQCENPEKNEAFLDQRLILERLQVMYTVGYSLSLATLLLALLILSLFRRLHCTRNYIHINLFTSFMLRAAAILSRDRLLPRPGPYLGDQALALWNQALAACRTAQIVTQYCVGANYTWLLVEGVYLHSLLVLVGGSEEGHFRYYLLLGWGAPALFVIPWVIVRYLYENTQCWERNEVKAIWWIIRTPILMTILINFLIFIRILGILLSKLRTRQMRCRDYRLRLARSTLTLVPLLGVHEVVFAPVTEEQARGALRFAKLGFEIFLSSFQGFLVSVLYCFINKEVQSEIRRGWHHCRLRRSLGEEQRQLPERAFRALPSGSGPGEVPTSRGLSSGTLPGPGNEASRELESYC
The experiment in a line: cAMP induction, firefly luciferase reporter assay in HEK293 cells co-transfected with GIP receptor. It counts as cell-based. For orientation: In a reporter assay the amount or activity of a reporter protein is the signal.

For test [2], the target named is T2, GLP-1 receptor (Homo sapiens, UniProt P43220).
T2 construct: expressed in transfected cells; host or cells: HEK293
Put plainly: cAMP induction, firefly luciferase reporter assay in HEK293 cells co-transfected with GLP-1 receptor. It counts as cell-based. The source says:
This example describes an exemplary method of testing the biological activity of the peptides of the present disclosures, which method involves assaying cAMP synthesis.

Setting [3] is: EC50 (nM) at GIP Receptor, Table 4, Example 9, composite of multiple different activity assays.
Setting [4] is: EC50 (nM) at GLP-1 Receptor, Table 4, Example 9, composite of multiple different activity assays.
Setting [5] is: EC50 (nM) at GIP Receptor, Table 9, Example 15.
Setting [6] is: EC50 (nM) at GLP-1 Receptor, Table 9, Example 15.

*1 amine or outer side, *2 acyl side, *3 side chain or, on linkers, in order; H or OH if unused. Where a SMILES comes first, the peptide text is derived from it. Where no end group is shown, it is not given here. Side-chain parts run from the residue outwards. [ ]: non-standard residue; d: D form. The star is where a group is joined. Phe(4-NH2) = Nc1ccc(C[C@H](N)C(=O)O)cc1; γGlu = O=C(O)[C@H](CCC(=O)[*:2])N[*:1]; Palmitoyl = CCCCCCCCCCCCCCCC(=O)*; Aib = CC(C)(N)C(=O)O

T2 sequence (P43220 24-463): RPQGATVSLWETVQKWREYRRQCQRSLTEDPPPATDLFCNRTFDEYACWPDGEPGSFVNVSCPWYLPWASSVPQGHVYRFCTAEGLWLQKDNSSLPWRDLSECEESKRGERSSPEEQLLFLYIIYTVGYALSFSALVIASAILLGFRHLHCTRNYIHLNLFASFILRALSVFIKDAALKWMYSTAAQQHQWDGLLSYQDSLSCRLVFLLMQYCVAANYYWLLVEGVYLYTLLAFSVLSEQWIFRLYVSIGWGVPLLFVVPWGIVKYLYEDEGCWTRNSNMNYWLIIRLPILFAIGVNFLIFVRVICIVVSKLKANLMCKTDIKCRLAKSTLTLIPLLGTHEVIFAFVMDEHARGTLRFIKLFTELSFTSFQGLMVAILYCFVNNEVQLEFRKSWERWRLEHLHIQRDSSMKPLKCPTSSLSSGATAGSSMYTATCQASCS

One may read the EC50 as the concentration needed to bring the measured effect to its halfway point. Lower therefore signals a more potent agent. With `CC[C@H](C)[C@H](NC(=O)[C@H](CO)NC(=O)[C@H](Cc1ccc(O)cc1)NC(=O)[C@H](CC(=O)O)NC(=O)[C@H](CO)NC(=O)[C@@H](NC(=O)[C@H](Cc1ccccc1)NC(=O)[C@@H](NC(=O)CNC(=O)[C@H](CCC(N)=O)NC(=O)[C@@H](CO)NC(=O)[C@@H](N)Cc1c[nH]cn1)[C@@H](C)O)[C@@H](C)O)C(=O)N[C@@H](Cc1ccc(O)cc1)C(=O)N[C@@H](CC(C)C)C(=O)N[C@@H](CC(=O)O)C(=O)N[C@@H](CCCCN)C(=O)N[C@@H](CCC(N)=O)C(=O)N[C@@H](C)C(=O)N[C@@H](C)C(=O)NC(C)(C)C(=O)N[C@@H](CCC(=O)O)C(=O)N[C@@H](Cc1ccccc1)C(=O)N[C@H](C(=O)N[C@@H](CC(N)=O)C(=O)N[C@@H](Cc1c[nH]c2ccccc12)C(=O)N[C@@H](CC(C)C)C(=O)N[C@@H](CC(C)C)C(=O)N[C@@H](C)C(=O)NCC(=O)NCC(=O)N1CCC[C@H]1C(=O)N[C@@H](CO)C(=O)N[C@@H](CO)C(=O)NCC(=O)N[C@@H](C)C(=O)N1CCC[C@H]1C(=O)N1CCC[C@H]1C(=O)N1CCC[C@H]1C(=O)N[C@@H](CO)C(=O)N[C@@H](CS)C(N)=O)C(C)C` [compound 48] (H-H[dS]QGTFTSDYSIYLDKQAA[Aib]EFVNWLLAGGPSSGAPPPSC-NH2; N-terminus assumed), the EC50 amounted to 0.433 nM in test [1] (EC50 (nM) at GIP Receptor, Table 6, Example 12) and 0.01 nM in test [2] (EC50 (nM) at GLP-1 Receptor, Table 6, Example 12).
As to `CCCCCCCCCCCCCCCC(=O)N[C@@H](CCC(=O)N[C@@H](CCC(=O)NCCCC[C@H](NC(=O)[C@H](CC(=O)O)NC(=O)[C@H](CO)NC(=O)[C@@H](NC(=O)[C@H](Cc1ccccc1)NC(=O)[C@@H](NC(=O)CNC(=O)[C@H](CCC(N)=O)NC(=O)C(C)(C)NC(=O)[C@@H](N)Cc1ccc(O)cc1)[C@@H](C)O)[C@@H](C)O)C(=O)N[C@@H](CO)C(=O)N[C@H](C(=O)N[C@@H](Cc1ccc(O)cc1)C(=O)N[C@@H](CC(C)C)C(=O)N[C@@H](CC(=O)O)C(=O)N[C@@H](CCCCN)C(=O)N[C@@H](CCC(N)=O)C(=O)N[C@@H](C)C(=O)N[C@@H](C)C(=O)NC(C)(C)C(=O)N[C@@H](CCC(=O)O)C(=O)N[C@@H](Cc1ccccc1)C(=O)N[C@H](C(=O)N[C@@H](CC(N)=O)C(=O)N[C@@H](Cc1c[nH]c2ccccc12)C(=O)N[C@@H](CC(C)C)C(=O)N[C@@H](CC(C)C)C(=O)N[C@@H](CC(=O)O)C(=O)N[C@H](C(N)=O)[C@@H](C)O)C(C)C)[C@@H](C)CC)C(=O)O)C(=O)O` [compound 92] (H-Y[Aib]QGTFTSDK([γGlu-γGlu-Palmitoyl])SIYLDKQAA[Aib]EFVNWLLDT-NH2; N-terminus assumed), the EC50 is 0.021 nM in test [1] (EC50 (nM) at GIP Receptor, Table 7, Example 13) and 0.0031 nM in test [2] (EC50 (nM) at GLP-1 Receptor, Table 7, Example 13).
On to `CCCCCCCCCCCCCCCC(=O)N[C@@H](CCC(=O)NCCCC[C@H](NC(=O)[C@H](CC(=O)O)NC(=O)[C@H](CO)NC(=O)[C@@H](NC(=O)[C@H](Cc1ccccc1)NC(=O)[C@@H](NC(=O)CNC(=O)[C@H](CCC(=O)O)NC(=O)C(C)(C)NC(=O)[C@@H](N)Cc1c[nH]cn1)[C@@H](C)O)[C@@H](C)O)C(=O)N[C@@H](CO)C(=O)N[C@@H](CCCCN)C(=O)N[C@@H](Cc1ccc(O)cc1)C(=O)N[C@@H](CC(C)C)C(=O)N[C@@H](CC(=O)O)C(=O)N[C@@H](CCC(=O)O)C(=O)N[C@@H](CCCNC(=N)N)C(=O)N[C@@H](CCCNC(=N)N)C(=O)N[C@@H](C)C(=O)NC(C)(C)C(=O)N[C@@H](CCC(=O)O)C(=O)N[C@@H](Cc1ccccc1)C(=O)N[C@H](C(=O)N[C@@H](CCC(N)=O)C(=O)N[C@@H](Cc1c[nH]c2ccccc12)C(=O)N[C@@H](CC(C)C)C(=O)N[C@@H](CC(C)C)C(=O)N[C@@H](CC(=O)O)C(=O)N[C@H](C(N)=O)[C@@H](C)O)C(C)C)C(=O)O` [compound 40] (H-H[Aib]EGTFTSDK([γGlu-Palmitoyl])SKYLDERRA[Aib]EFVQWLLDT-NH2; N-terminus assumed), for which the values for the concentration for a half-maximal effect (EC50) in test [1] (setting [3]) and in test [2] (setting [4]) were 0.024 nM and 0.006 nM, respectively.
On to `CCCCCCCCCCCCCCCC(=O)NCCCC[C@H](NC(=O)[C@H](CO)NC(=O)[C@@H]1CCCN1C(=O)[C@@H]1CCCN1C(=O)[C@@H]1CCCN1C(=O)[C@H](C)NC(=O)CNC(=O)[C@H](CO)NC(=O)[C@H](CO)NC(=O)[C@@H]1CCCN1C(=O)CNC(=O)CNC(=O)[C@H](C)NC(=O)[C@H](CC(C)C)NC(=O)[C@H](CC(C)C)NC(=O)[C@H](Cc1c[nH]c2ccccc12)NC(=O)[C@H](CC(N)=O)NC(=O)[C@@H](NC(=O)[C@H](Cc1ccccc1)NC(=O)[C@H](CCC(=O)O)NC(=O)C(C)(C)NC(=O)[C@H](C)NC(=O)[C@H](C)NC(=O)[C@H](CCC(N)=O)NC(=O)[C@H](CCCCN)NC(=O)[C@H](CC(=O)O)NC(=O)[C@H](CC(C)C)NC(=O)[C@H](Cc1ccc(O)cc1)NC(=O)[C@@H](NC(=O)[C@H](CO)NC(=O)[C@H](Cc1ccc(O)cc1)NC(=O)[C@H](CC(=O)O)NC(=O)[C@H](CO)NC(=O)[C@@H](NC(=O)[C@H](Cc1ccccc1)NC(=O)[C@@H](NC(=O)CNC(=O)[C@H](CCC(=O)O)NC(=O)C(C)(C)NC(=O)[C@@H](N)Cc1ccc(O)cc1)[C@@H](C)O)[C@@H](C)O)[C@@H](C)CC)C(C)C)C(=O)NCC(N)=O` [SEQ ID NO: 139], for which the values for the EC50 in test [1] (setting [5]) and in test [2] (setting [6]) were 0.001 nM and 0.005 nM, respectively.
With `CCCCCCCCCCCCCCCC(=O)N[C@@H](CCC(=O)NCCCC[C@H](NC(=O)[C@H](CC(=O)O)NC(=O)[C@H](CO)NC(=O)[C@@H](NC(=O)[C@H](Cc1ccccc1)NC(=O)[C@@H](NC(=O)CNC(=O)[C@H](CCC(=O)O)NC(=O)C(C)(C)NC(=O)[C@@H](N)Cc1c[nH]cn1)[C@@H](C)O)[C@@H](C)O)C(=O)N[C@@H](CO)C(=O)N[C@@H](CCCCN)C(=O)N[C@@H](Cc1ccc(O)cc1)C(=O)N[C@@H](CC(C)C)C(=O)N[C@@H](CC(=O)O)C(=O)N[C@@H](CCC(=O)O)C(=O)N[C@@H](CCCNC(=N)N)C(=O)N[C@@H](CCCNC(=N)N)C(=O)N[C@@H](C)C(=O)NC(C)(C)C(=O)N[C@@H](CC(=O)O)C(=O)N[C@@H](Cc1ccccc1)C(=O)N[C@H](C(=O)N[C@@H](CCC(N)=O)C(=O)N[C@@H](Cc1c[nH]c2ccccc12)C(=O)N[C@@H](CC(C)C)C(=O)N[C@@H](CC(C)C)C(=O)N[C@@H](CC(=O)O)C(=O)NCC(=O)NCC(=O)N1CCC[C@H]1C(=O)N[C@@H](CO)C(=O)N[C@@H](CO)C(=O)NCC(=O)N[C@@H](C)C(=O)N1CCC[C@H]1C(=O)N1CCC[C@H]1C(=O)N1CCC[C@H]1C(=O)N[C@@H](CO)C(N)=O)C(C)C)C(=O)O` [compound 41] (H-H[Aib]EGTFTSDK([γGlu-Palmitoyl])SKYLDERRA[Aib]DFVQWLLDGGPSSGAPPPS-NH2), the EC50 is 0.013 nM in test [1] (setting [3]) and 0.006 nM in test [2] (setting [4]).
`CCCCCCCCCCCCCCCC(=O)N[C@@H](CCC(=O)N[C@@H](CCC(=O)Nc1ccc(C[C@H](NC(=O)[C@H](CC(=O)O)NC(=O)[C@H](CO)NC(=O)[C@@H](NC(=O)[C@H](Cc2ccccc2)NC(=O)[C@@H](NC(=O)CNC(=O)[C@H](CCC(=O)O)NC(=O)C(C)(C)NC(=O)[C@@H](N)Cc2ccc(O)cc2)[C@@H](C)O)[C@@H](C)O)C(=O)N[C@@H](CO)C(=O)N[C@H](C(=O)N[C@@H](Cc2ccc(O)cc2)C(=O)N[C@@H](CC(C)C)C(=O)N[C@@H](CC(=O)O)C(=O)N[C@@H](CCCCN)C(=O)N[C@@H](CCC(N)=O)C(=O)N[C@@H](C)C(=O)N[C@@H](C)C(=O)NC(C)(C)C(=O)N[C@@H](CCC(=O)O)C(=O)N[C@@H](Cc2ccccc2)C(=O)N[C@H](C(=O)N[C@@H](CC(N)=O)C(=O)N[C@@H](Cc2c[nH]c3ccccc23)C(=O)N[C@@H](CC(C)C)C(=O)N[C@@H](CC(C)C)C(=O)N[C@@H](C)C(=O)NCC(=O)NCC(=O)N2CCC[C@H]2C(=O)N[C@@H](CO)C(=O)N[C@@H](CO)C(=O)NCC(=O)N[C@@H](C)C(=O)N2CCC[C@H]2C(=O)N2CCC[C@H]2C(=O)N2CCC[C@H]2C(=O)N[C@@H](CO)C(N)=O)C(C)C)[C@@H](C)CC)cc1)C(=O)O)C(=O)O` [SEQ ID NO: 143] (H-Y[Aib]EGTFTSD[Phe(4-NH2)]([γGlu-γGlu-Palmitoyl])SIYLDKQAA[Aib]EFVNWLLAGGPSSGAPPPS-NH2; N-terminus assumed): the EC50 stood at 0.003 nM in test [1] (setting [5]) and 0.002 nM in test [2] (setting [6]).
For the molecule “H[Aib]EGTFTSDYSKYLDERAAQDFVQWLLDGGPSSGAPPPSK([γGlu-γGlu-Palmitoyl])G-NH2 [SEQ ID NO: 171]”, the EC50 in test [1] (EC50 (nM) at GIP receptor, Table 15, Example 23) stood at 0.038 nM; in test [2] (EC50 (nM) at GLP-1 receptor, Table 15, Example 23), 0.005 nM.

Values taken from patent US9587005B2 (priority 2010, dated 2017).
